Results reported in the NIST ThermoML archive (doi:10.1021/je034102r).
Numbers after ± are expanded uncertainties.

Experiment: molar heat capacity at constant pressure
Conditions: 101.33 kPa, Liquid, heat bridge-scanning calorimeter

CCCCn1cc[n+](C)c1.F[P-](F)(F)(F)(F)F [1-butyl-3-methylimidazolium hexafluorophosphate]
Conditions	molar heat capacity at constant pressure [J/K/mol]
495.63 K	502.43 ± 9.9
495.77 K	502.43 ± 9.9
495.91 K	502.43 ± 9.9
496.05 K	502.72 ± 9.9
496.18 K	503.86 ± 9.9
496.32 K	504.14 ± 9.9
496.46 K	504.14 ± 9.9
496.6 K	503.29 ± 9.9
496.9 K	505.56 ± 10
497.04 K	506.13 ± 10
497.17 K	506.13 ± 10
497.31 K	504.99 ± 10
497.45 K	504.42 ± 10
497.58 K	504.14 ± 9.9
497.72 K	503.57 ± 9.9
497.86 K	503.57 ± 9.9
498 K	503.57 ± 9.9
498.13 K	503.29 ± 9.9
498.27 K	503.86 ± 9.9
498.57 K	504.71 ± 10
498.7 K	504.42 ± 10
498.84 K	505.84 ± 10
498.98 K	507.27 ± 10
499.11 K	506.98 ± 10
499.25 K	505.84 ± 10
499.39 K	504.99 ± 10
499.52 K	504.71 ± 10
499.66 K	504.42 ± 10
499.96 K	504.14 ± 9.9
500.1 K	504.42 ± 10
500.24 K	504.42 ± 10
500.37 K	504.42 ± 10
500.51 K	504.71 ± 10
500.65 K	505.56 ± 10
500.79 K	506.13 ± 10
500.92 K	506.41 ± 10
501.06 K	506.13 ± 10
501.2 K	506.41 ± 10
501.34 K	506.7 ± 10
501.63 K	505.84 ± 10
501.78 K	506.98 ± 10
501.92 K	507.55 ± 10
502.06 K	506.41 ± 10
502.19 K	505.84 ± 10
502.33 K	505.56 ± 10
502.47 K	505.28 ± 10
502.61 K	504.99 ± 10
502.74 K	505.28 ± 10
503.05 K	505.28 ± 10
503.18 K	504.99 ± 10
503.32 K	505.28 ± 10
503.46 K	505.28 ± 10
503.59 K	505.28 ± 10
503.73 K	505.84 ± 10
503.87 K	505.84 ± 10
504.01 K	505.84 ± 10
504.14 K	506.13 ± 10
504.28 K	507.55 ± 10
504.42 K	505.84 ± 10
504.71 K	505.84 ± 10
504.85 K	505.84 ± 10
504.99 K	506.13 ± 10
505.13 K	506.41 ± 10
505.26 K	506.7 ± 10
505.4 K	506.41 ± 10
505.54 K	506.98 ± 10
505.68 K	506.98 ± 10
505.81 K	505.84 ± 10
506.11 K	505.84 ± 10
506.25 K	506.13 ± 10
506.39 K	507.83 ± 10
506.53 K	507.27 ± 10
506.66 K	506.98 ± 10
506.8 K	506.98 ± 10
506.94 K	506.41 ± 10
507.08 K	506.13 ± 10
507.21 K	506.13 ± 10
507.35 K	506.7 ± 10
507.49 K	506.98 ± 10
507.78 K	507.27 ± 10
507.92 K	508.12 ± 10
508.06 K	508.12 ± 10
508.21 K	508.12 ± 10
508.35 K	507.27 ± 10
508.48 K	506.98 ± 10
508.62 K	506.98 ± 10
508.76 K	506.98 ± 10
508.9 K	507.27 ± 10
509.2 K	506.7 ± 10
509.33 K	506.98 ± 10
509.47 K	507.83 ± 10
509.61 K	508.69 ± 10
509.75 K	509.25 ± 10
509.88 K	509.25 ± 10
510.02 K	507.55 ± 10
510.16 K	506.7 ± 10
510.29 K	506.13 ± 10
510.43 K	506.7 ± 10
510.57 K	507.55 ± 10
510.86 K	507.83 ± 10
511 K	507.27 ± 10
511.14 K	506.7 ± 10
511.28 K	506.41 ± 10
511.41 K	505.84 ± 10
511.55 K	506.41 ± 10
511.69 K	507.27 ± 10
511.83 K	506.98 ± 10
511.96 K	506.41 ± 10
512.26 K	506.7 ± 10
512.4 K	507.27 ± 10
512.54 K	507.55 ± 10
512.68 K	507.55 ± 10
512.81 K	507.55 ± 10
512.95 K	506.98 ± 10
513.09 K	506.7 ± 10
513.23 K	506.98 ± 10
513.36 K	506.98 ± 10
513.5 K	506.7 ± 10
513.64 K	506.41 ± 10
513.93 K	506.13 ± 10
514.07 K	506.13 ± 10
514.21 K	506.13 ± 10
514.35 K	506.41 ± 10
514.48 K	507.27 ± 10
514.62 K	507.83 ± 10
514.77 K	507.83 ± 10
514.91 K	507.27 ± 10
515.05 K	506.98 ± 10
515.35 K	507.55 ± 10
515.49 K	507.55 ± 10
515.62 K	506.98 ± 10
515.76 K	506.98 ± 10
515.9 K	506.98 ± 10
516.04 K	507.27 ± 10
516.18 K	507.27 ± 10
516.31 K	506.98 ± 10
516.45 K	506.98 ± 10
516.59 K	506.98 ± 10
516.73 K	506.7 ± 10
517.03 K	507.27 ± 10
517.16 K	506.98 ± 10
517.3 K	507.27 ± 10
517.44 K	506.98 ± 10
517.58 K	506.98 ± 10
517.71 K	507.27 ± 10
517.85 K	506.98 ± 10
517.99 K	506.98 ± 10
518.13 K	507.27 ± 10
518.43 K	508.97 ± 10
518.57 K	508.12 ± 10
518.71 K	507.83 ± 10
518.85 K	507.55 ± 10
518.98 K	507.83 ± 10
519.12 K	508.12 ± 10
519.26 K	508.4 ± 10
519.4 K	508.4 ± 10
519.53 K	508.4 ± 10
519.67 K	508.12 ± 10
519.81 K	508.12 ± 10
520.11 K	508.12 ± 10
520.24 K	508.4 ± 10
520.38 K	508.97 ± 10
520.52 K	508.97 ± 10
520.66 K	509.25 ± 10
520.79 K	509.54 ± 10
520.93 K	509.54 ± 10
521.07 K	509.25 ± 10
521.22 K	508.97 ± 10
521.52 K	509.25 ± 10
521.66 K	509.25 ± 10
521.8 K	509.25 ± 10
521.94 K	509.25 ± 10
522.07 K	509.25 ± 10
522.21 K	509.54 ± 10
522.35 K	509.82 ± 10
522.49 K	510.39 ± 10
522.62 K	510.39 ± 10
522.76 K	510.11 ± 10
522.9 K	510.11 ± 10
523.2 K	510.11 ± 10
523.33 K	509.82 ± 10
523.47 K	509.82 ± 10
523.61 K	509.82 ± 10
523.75 K	509.82 ± 10
523.88 K	510.11 ± 10
524.02 K	510.39 ± 10
524.16 K	510.11 ± 10
524.3 K	509.82 ± 10
524.6 K	509.82 ± 10
524.74 K	510.11 ± 10
524.87 K	510.11 ± 10
